# Reference: PubChem BioAssay (NCI)
#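 Assay format: 96-well plates, 48-hour exposure. GI50 marks 50% less growth. Definition used: TGI = concentration required for complete inhibition of growth.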
# Legend:
# Assay in all cases: NCI-60 cell line screen, 48 h
# [1] = tested on: A498 renal
# [2] = tested on: A549 NSCLC
# [3] = tested on: ACHN renal
# [4] = tested on: BT-549 breast
# [5] = tested on: CCRF-CEM leukemia
# [6] = tested on: COLO 205 colon
# [7] = tested on: DU-145 prostate
# [8] = tested on: EKVX NSCLC
# [9] = tested on: HCC-2998 colon
# [10] = tested on: HCT-116 colon
# [11] = tested on: HCT-15 colon
# [12] = tested on: HL-60(TB) leukemia
# [13] = tested on: HOP-62 NSCLC
# [14] = tested on: HOP-92 NSCLC
# [15] = tested on: HS 578T breast
# [16] = tested on: HT29 colon
# [17] = tested on: IGROV1 ovarian
# [18] = tested on: K-562 leukemia
# [19] = tested on: KM12 colon
# [20] = tested on: LOX IMVI melanoma
# [21] = tested on: M14 melanoma
# [22] = tested on: MALME-3M melanoma
# [23] = tested on: MCF7 breast
# [24] = tested on: MDA-MB-231 breast
# [25] = tested on: MDA-MB-435
# [26] = tested on: MOLT-4 leukemia
# [27] = tested on: NCI-H226 lung
# [28] = tested on: NCI-H23 lung
# [29] = tested on: NCI-H460 lung
# [30] = tested on: NCI-H522 lung
# [31] = tested on: NCI/ADR-RES ovarian
# [32] = tested on: OVCAR-3 ovarian
# [33] = tested on: OVCAR-4 ovarian
# [34] = tested on: OVCAR-5 ovarian
# [35] = tested on: PC-3 prostate
# [36] = tested on: RPMI-8226 leukemia
# [37] = tested on: RXF 393 renal
# [38] = tested on: SF-268 CNS
# [39] = tested on: SF-295 CNS
# [40] = tested on: SF-539 CNS
# [41] = tested on: SK-MEL-2 melanoma
# [42] = tested on: SK-MEL-28 melanoma
# [43] = tested on: SK-MEL-5 melanoma
# [44] = tested on: SK-OV-3 ovarian
# [45] = tested on: SN12C renal
# [46] = tested on: SNB-19 CNS
# [47] = tested on: SNB-75 CNS
# [48] = tested on: SR leukemia
# [49] = tested on: SW-620 colon
# [50] = tested on: T-47D breast
# [51] = tested on: TK-10 renal
# [52] = tested on: U251 CNS
# [53] = tested on: UACC-257 melanoma
# [54] = tested on: UACC-62 melanoma
# [55] = tested on: UO-31 renal
structure (smiles),measurement,setting,value
CCOc1cc(/C=C/C(=O)C(C(=O)/C=C/c2ccc(OC(=O)CNc3nc4ccccc4[nH]3)c(OCC)c2)C(=O)CNc2nc3ccccc3[nH]2)ccc1OC(=O)CNc1nc2ccccc2[nH]1,GI50,[1],1.68 µM
same,TGI,[1],3.87 µM
same,GI50,[2],3.55 µM
same,TGI,[2],27 µM
same,GI50,[3],2.31 µM
same,TGI,[3],6.68 µM
same,GI50,[4],1.45 µM
same,TGI,[4],3.13 µM
same,GI50,[5],1.14 µM
same,TGI,[5],3.16 µM
same,GI50,[6],2.08 µM
same,TGI,[6],4.61 µM
same,GI50,[7],1.7 µM
same,TGI,[7],3.72 µM
same,GI50,[8],1.99 µM
same,TGI,[8],5.37 µM
same,GI50,[9],1.69 µM
same,TGI,[9],3.22 µM
same,GI50,[10],1.63 µM
same,TGI,[10],4.84 µM
same,GI50,[11],2.53 µM
same,TGI,[11],7.87 µM
same,GI50,[12],1.62 µM
same,TGI,[12],3.61 µM
same,GI50,[13],4.23 µM
same,TGI,[13],> 100 µM
same,GI50,[14],1.4 µM
same,TGI,[14],4.26 µM
same,GI50,[15],1.83 µM
same,TGI,[15],5.18 µM
same,GI50,[16],1.29 µM
same,TGI,[16],2.56 µM
same,GI50,[17],2.93 µM
same,TGI,[17],> 100 µM
same,GI50,[18],1.44 µM
same,TGI,[18],2.75 µM
same,GI50,[19],1.62 µM
same,TGI,[19],3.26 µM
same,GI50,[20],1.66 µM
same,TGI,[20],3.02 µM
same,GI50,[21],2.14 µM
same,TGI,[21],6.76 µM
same,GI50,[22],1.75 µM
same,TGI,[22],5.93 µM
same,GI50,[23],1.06 µM
same,TGI,[23],3.56 µM
same,GI50,[24],2.39 µM
same,TGI,[24],7.29 µM
same,GI50,[25],2.07 µM
same,TGI,[25],6.92 µM
same,GI50,[26],1.47 µM
same,TGI,[26],3.04 µM
same,GI50,[27],2.07 µM
same,TGI,[27],5.67 µM
same,GI50,[28],2.5 µM
same,TGI,[28],9.71 µM
same,GI50,[29],1.92 µM
same,TGI,[29],4.44 µM
same,GI50,[30],3.29 µM
same,TGI,[30],12.5 µM
same,GI50,[31],3.39 µM
same,TGI,[31],74 µM
same,GI50,[32],2.81 µM
same,TGI,[32],12.3 µM
same,GI50,[33],3.39 µM
same,TGI,[33],22.7 µM
same,GI50,[34],2.09 µM
same,TGI,[34],5.22 µM
same,GI50,[35],2.12 µM
same,TGI,[35],6.23 µM
same,GI50,[36],0.754 µM
same,TGI,[36],2.51 µM
same,GI50,[37],4.08 µM
same,TGI,[37],> 100 µM
same,GI50,[38],2 µM
same,TGI,[38],6.79 µM
same,GI50,[39],7.86 µM
same,TGI,[39],22.7 µM
same,GI50,[40],1.61 µM
same,TGI,[40],3.1 µM
same,GI50,[41],3.26 µM
same,TGI,[41],28.8 µM
same,GI50,[42],1.77 µM
same,TGI,[42],3.56 µM
same,GI50,[43],1.6 µM
same,TGI,[43],3.02 µM
same,GI50,[44],3.17 µM
same,TGI,[44],11.9 µM
same,GI50,[45],2.21 µM
same,TGI,[45],5.61 µM
same,GI50,[46],2.96 µM
same,TGI,[46],11.7 µM
same,GI50,[47],3.73 µM
same,TGI,[47],27.9 µM
same,GI50,[48],0.788 µM
same,TGI,[48],2.53 µM
same,GI50,[49],1.6 µM
same,TGI,[49],2.95 µM
same,GI50,[50],2.86 µM
same,TGI,[50],14.9 µM
same,GI50,[51],3.24 µM
same,TGI,[51],14.2 µM
same,GI50,[52],1.94 µM
same,TGI,[52],4.34 µM
same,GI50,[53],2.85 µM
same,TGI,[53],8.73 µM
same,GI50,[54],1.9 µM
same,TGI,[54],3.98 µM
same,GI50,[55],3.98 µM
same,TGI,[55],> 100 µM
